Patent US10294202B2, “Pyrrolidinones as herbicides” (FMC Corporation, priority 2013, dated 2019)

Tests used:
corn = assay: Test A pre-/postemergence herbicide test; type: in vivo, Zea mays; settings: Postemergence; for Corn plant response rating (0 to 100 scale, 0 is no effect, 100 is complete control): 500 g ai/ha
In short: (§1)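 Directed soil spray to seeded pots (preemergence) or spray onto one- to two-leaf seedlings 2–10 cm tall (postemergence); loam/sand substrate throughout. Evaluated visually after about 10 days against untreated plants, 0 = no effect, 100 = complete control.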

blackgrass = assay: Test A postemergence herbicide test; type: in vivo, Alopecurus myosuroides; settings: for Blackgrass plant response rating (0 to 100 scale, 0 is no effect, 100 is complete control): 500 g ai/ha
In short: (§2)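 Plants at the one- to two-leaf stage, 2–10 cm tall, grown in loam/sand pots, received postemergence sprays of the test chemicals. After about 10 days in the greenhouse, injury was scored visually against untreated controls on a 0–100 scale (0 none, 100 complete control).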

wheat = assay: Test A pre-/postemergence herbicide test; type: in vivo, Triticum aestivum; settings: Postemergence; for Wheat plant response rating (0 to 100 scale, 0 is no effect, 100 is complete control): 500 g ai/ha
In short: as §1

galium = assay: Test A postemergence herbicide test; type: in vivo, Galium aparine; settings: for Galium plant response rating (0 to 100 scale, 0 is no effect, 100 is complete control): 500 g ai/ha
In short: as §2

pigweed = assay: Test A pre-/postemergence herbicide test; type: in vivo, Amaranthus retroflexus
In short: as §1

barnyardgrass = assay: Test A pre-/postemergence herbicide test; type: in vivo, Echinochloa crus-galli
In short: as §1

ragweed = assay: Test A pre-/postemergence herbicide test; type: in vivo, Ambrosia elatior
From the text: (§3) Seeds of plant species selected from bamyardgrass (Echinochloa crus-galli), kochia (Kochia scoparia), ragweed (common ragweed, Ambrosia elatior), ryegrass, Italian (Italian ryegrass, Lolium multiflorum), crabgrass, large (large crabgrass Digitaria sanguinalis), giant foxtail (Setaria faberii), morningglory (Ipomoea spp.), pigweed (Amaranthus retroflexus), velvetleaf (Abutilon theophrasti), wheat (Triticum aestivum), and corn (Zea mays) were planted into a blend of loam soil and sand and treated preemergence with a directed soil spray using test chemicals formulated in a non-phytotoxic solvent mixture which included a surfactant. At the same time, plants selected from these crop and weed species and also blackgrass (Alopecurus myosuroides), and galium (catchweed bedstraw, Galium aparine) were planted in pots containing the same blend of loam soil and sand and treated with postemergence applications of test chemicals formulated in the same manner. Plants ranged in height from 2 to 10 cm and were in the one- to two-leaf stage for the postemergence treatment. Treated plants and untreated controls were maintained in a greenhouse for approximately 10 days, after which time all treated plants were compared to untreated controls and visually evaluated for injury. Plant response ratings, summarized in Table A, are based on a 0 to 100 scale where 0 is no effect and 100 is complete control. A dash (-) response means no test result.

giant foxtail = assay: Test A pre-/postemergence herbicide test; type: in vivo, Setaria faberii
In short: as §1

ryegrass, Italian = assay: Test A pre-/postemergence herbicide test; type: in vivo, Lolium multiflorum
From the text: as §3

kochia = assay: Test A pre-/postemergence herbicide test; type: in vivo, Kochia scoparia
In short: as §1

[1] = 125 g ai/ha, 0 to 100 scale, 0 is no effect, 100 is complete control
[2] = 125 g ai/ha, visual rating, 0 to 100 scale, 0 no effect, 100 complete control, approximately 10 days, preemergence
[3] = Postemergence, 125 g ai/ha, 0 to 100 scale, 0 is no effect, 100 is complete control
[4] = preemergence, 500 g ai/ha, 0 to 100 scale, 0 is no effect and 100 is complete control
[5] = 1000 g ai/ha, 0 to 100 scale (0 no effect, 100 complete control)
[6] = Postemergence, 1000 g ai/ha, 0 to 100 scale (0 no effect, 100 complete control)
[7] = preemergence, 1000 g ai/ha, 0 to 100 scale
[8] = preemergence, 1000 g ai/ha, 0 to 100 scale (0 no effect, 100 complete control)

SMILES: Cc1ccc(NC(=O)C2C(=O)NCC2c2cccc(C(F)(F)F)c2)cc1C(F)(F)F (racemic) [Compound 186]
- Plant response rating, Corn (corn; [1]): 0
- Corn plant response rating (0 to 100 scale, 0 is no effect, 100 is complete control) (corn): 0
- Plant response rating, Blackgrass (blackgrass; [1]): 0
- Blackgrass plant response rating (0 to 100 scale, 0 is no effect, 100 is complete control) (blackgrass): 0
- Plant response rating, Wheat (wheat; [1]): 0
- Wheat plant response rating (0 to 100 scale, 0 is no effect, 100 is complete control) (wheat): 0
- Plant response rating, Galium (galium; [1]): 0
- Galium plant response rating (0 to 100 scale, 0 is no effect, 100 is complete control) (galium): 0
- Plant response rating, Pigweed (pigweed; [2]): 0
- Plant response rating, Pigweed (pigweed; [3]): 0
- Pigweed plant response rating (0 to 100 scale, 0 is no effect, 100 is complete control) (pigweed; Postemergence, 500 g ai/ha): 0
- Plant response rating, Pigweed (pigweed; [4]): 0
- Plant response rating, Barnyardgrass (barnyardgrass; [2]): 0
- Plant response rating, Barnyardgrass (barnyardgrass; [3]): 0
- Barnyardgrass plant response rating (0 to 100 scale, 0 is no effect, 100 is complete control) (barnyardgrass; Postemergence, 500 g ai/ha): 0
- Plant response rating, Barnyardgrass (barnyardgrass; [4]): 0
- Plant response rating, Ragweed (ragweed; [2]): 0
- Plant response rating, Ragweed (ragweed; [3]): 0
- Ragweed plant response rating (0 to 100 scale, 0 is no effect, 100 is complete control) (ragweed; Postemergence, 500 g ai/ha): 0
- Plant response rating, Ragweed (ragweed; [4]): 0
- Plant response rating, Foxtail, Giant (giant foxtail; [2]): 0
- Plant response rating, Foxtail, Giant (giant foxtail; [3]): 0
- Foxtail, Giant plant response rating (0 to 100 scale, 0 is no effect, 100 is complete control) (giant foxtail; Postemergence, 500 g ai/ha): 0
- Plant response rating, Foxtail, Giant (giant foxtail; [4]): 0
- Plant response rating, Ryegrass, Italian (ryegrass, Italian; [2]): 0
- Plant response rating, Ryegrass, Italian (ryegrass, Italian; [3]): 0
- Ryegrass, Italian plant response rating (0 to 100 scale, 0 is no effect, 100 is complete control) (ryegrass, Italian; Postemergence, 500 g ai/ha): 0
- Plant response rating, Ryegrass, Italian (ryegrass, Italian; [4]): 0
- Plant response rating, Kochia (kochia; [2]): 0
- Plant response rating, Kochia (kochia; [3]): 0
- Kochia plant response rating (0 to 100 scale, 0 is no effect, 100 is complete control) (kochia; Postemergence, 500 g ai/ha): 0
- Plant response rating, Kochia (kochia; [4]): 0

SMILES: COc1ccc(NC(=O)C2C(=O)NCC2c2cccc(C(F)(F)F)c2)cc1F (racemic) [Compound 188]
- Plant response rating, Corn (corn; [1]): 0
- Corn plant response rating (0 to 100 scale, 0 is no effect, 100 is complete control) (corn): 0
- Plant response rating, Blackgrass (blackgrass; [1]): 0
- Blackgrass plant response rating (0 to 100 scale, 0 is no effect, 100 is complete control) (blackgrass): 0
- Plant response rating, Wheat (wheat; [1]): 0
- Wheat plant response rating (0 to 100 scale, 0 is no effect, 100 is complete control) (wheat): 0
- Plant response rating, Galium (galium; [1]): 0
- Galium plant response rating (0 to 100 scale, 0 is no effect, 100 is complete control) (galium): 0
- Plant response rating, Pigweed (pigweed; [2]): 0
- Plant response rating, Pigweed (pigweed; [3]): 0
- Pigweed plant response rating (0 to 100 scale, 0 is no effect, 100 is complete control) (pigweed; Postemergence, 500 g ai/ha): 0
- Plant response rating, Pigweed (pigweed; [4]): 0
- Plant response rating, Barnyardgrass (barnyardgrass; [2]): 0
- Plant response rating, Barnyardgrass (barnyardgrass; [3]): 0
- Barnyardgrass plant response rating (0 to 100 scale, 0 is no effect, 100 is complete control) (barnyardgrass; Postemergence, 500 g ai/ha): 0
- Plant response rating, Barnyardgrass (barnyardgrass; [4]): 0
- Plant response rating, Ragweed (ragweed; [2]): 0
- Plant response rating, Ragweed (ragweed; [3]): 0
- Ragweed plant response rating (0 to 100 scale, 0 is no effect, 100 is complete control) (ragweed; Postemergence, 500 g ai/ha): 0
- Plant response rating, Ragweed (ragweed; [4]): 0
- Plant response rating, Foxtail, Giant (giant foxtail; [2]): 0
- Plant response rating, Foxtail, Giant (giant foxtail; [3]): 0
- Foxtail, Giant plant response rating (0 to 100 scale, 0 is no effect, 100 is complete control) (giant foxtail; Postemergence, 500 g ai/ha): 0
- Plant response rating, Foxtail, Giant (giant foxtail; [4]): 0
- Plant response rating, Ryegrass, Italian (ryegrass, Italian; [2]): 0
- Plant response rating, Ryegrass, Italian (ryegrass, Italian; [3]): 0
- Ryegrass, Italian plant response rating (0 to 100 scale, 0 is no effect, 100 is complete control) (ryegrass, Italian; Postemergence, 500 g ai/ha): 0
- Plant response rating, Ryegrass, Italian (ryegrass, Italian; [4]): 0
- Plant response rating, Kochia (kochia; [2]): 0
- Plant response rating, Kochia (kochia; [3]): 0
- Kochia plant response rating (0 to 100 scale, 0 is no effect, 100 is complete control) (kochia; Postemergence, 500 g ai/ha): 0
- Plant response rating, Kochia (kochia; [4]): 0

SMILES: O=C1NCC(c2cccc(-c3ccccc3C(F)(F)F)c2)C1C(=O)Nc1ccccc1C(F)(F)F (stereo not drawn) [Compound 237]
- Plant response rating, Corn (corn; [5]): 0
- Plant response rating, Blackgrass (blackgrass; [5]): 0
- Plant response rating, Wheat (wheat; [5]): 0
- Plant response rating, Galium (galium; [5]): 0
- Plant response rating, Pigweed (pigweed; [6]): 0
- Plant response rating, Pigweed (pigweed; [7]): 0
- Plant response rating, Barnyardgrass (barnyardgrass; [6]): 20
- Plant response rating, Barnyardgrass (barnyardgrass; [8]): 60
- Plant response rating, Ragweed (ragweed; [6]): 0
- Plant response rating, Ragweed (ragweed; [7]): 0
- Plant response rating, Foxtail, Giant (giant foxtail; [6]): 0
- Plant response rating, Foxtail, Giant (giant foxtail; [7]): 80
- Plant response rating, Ryegrass, Italian (ryegrass, Italian; [6]): 0
- Plant response rating, Ryegrass, Italian (ryegrass, Italian; [7]): 0
- Plant response rating, Kochia (kochia; [6]): 0
- Plant response rating, Kochia (kochia; [7]): 0

SMILES: O=C1NCC(c2cccc(-c3ccccc3F)c2)C1C(=O)Nc1ccccc1C(F)(F)F (stereo not drawn) [Compound 238]
- Plant response rating, Corn (corn; [5]): 0
- Plant response rating, Blackgrass (blackgrass; [5]): 20
- Plant response rating, Wheat (wheat; [5]): 0
- Plant response rating, Galium (galium; [5]): 20
- Plant response rating, Pigweed (pigweed; [6]): 0
- Plant response rating, Pigweed (pigweed; [7]): 0
- Plant response rating, Barnyardgrass (barnyardgrass; [6]): 30
- Plant response rating, Barnyardgrass (barnyardgrass; [8]): 50
- Plant response rating, Ragweed (ragweed; [6]): 0
- Plant response rating, Ragweed (ragweed; [7]): 0
- Plant response rating, Foxtail, Giant (giant foxtail; [6]): 30
- Plant response rating, Foxtail, Giant (giant foxtail; [7]): 90
- Plant response rating, Ryegrass, Italian (ryegrass, Italian; [6]): 0
- Plant response rating, Ryegrass, Italian (ryegrass, Italian; [7]): 0
- Plant response rating, Kochia (kochia; [6]): 0
- Plant response rating, Kochia (kochia; [7]): 0
